ChEMBL document CHEMBL1949526, “Cyclic hydroxyamidines as amide isosteres: discovery of oxadiazolines and oxadiazines as potent and highly efficacious γ-secretase modulators in vivo” (J Med Chem, 2012)
Calls of active or inactive are those of the source. No cut-off for these calls is given here.

Key:
[1] = molecular target: T1, Gamma-secretase (Homo sapiens) (UniProt Q96BI3+Q9NZ42+Q8WW43+P49768+Q92542+P49810); assay: Modulation of gamma-secretase-mediated cleavage of human APP Swedish and London mutation expressed in HEK293 cells assessed as inhibition of amyloid beta42 production at 10 uM by SELDI-MS analysis; type: cell-based
[2] = molecular target: T1, Gamma-secretase (Homo sapiens); assay: Modulation of gamma-secretase-mediated cleavage of human APP Swedish and London mutation expressed in HEK293 cells assessed as inhibition of amyloid beta39 production at 10 uM by SELDI-MS analysis; type: cell-based
[3] = molecular target: T1, Gamma-secretase (Homo sapiens); assay: Modulation of gamma-secretase-mediated cleavage of human APP Swedish and London mutation expressed in HEK293 cells assessed as inhibition of amyloid beta40 production at 10 uM by SELDI-MS analysis; type: cell-based
[4] = system: Rattus norvegicus; assay: Antialzheimer activity in po dosed CD rat assessed as reduction in amyloid beta42 level in plasma after 3 hrs by alphaLISA analysis relative to total amyloid beta level; type: functional, organism-based
[5] = system: Rattus norvegicus; assay: Antialzheimer activity in CD rat assessed as reduction in amyloid beta42 level in CSF administered as po for 6 days by alphaLISA analysis relative to total amyloid beta level; type: functional, organism-based
[6] = system: Rattus norvegicus; assay: Antialzheimer activity in CD rat assessed as reduction in amyloid beta42 level in cortex administered as po for 6 days by alphaLISA analysis relative to total amyloid beta level; type: functional, organism-based
[7] = system: Rattus norvegicus; assay: Antialzheimer activity in CD rat assessed as reduction in amyloid beta42 level in cortex administered as po for 6 days by alphaLISA analysis relative to total amyloid beta40 level; type: functional, organism-based
[8] = system: Rattus norvegicus; assay: Antialzheimer activity in po dosed CD rat assessed as reduction in amyloid beta42 level in cortex after 3 hrs by alphaLISA analysis relative to total amyloid beta level; type: functional, organism-based
[9] = system: Rattus norvegicus; assay: Antialzheimer activity in po dosed CD rat assessed as reduction in amyloid beta42 level in plasma after 3 hrs by alphaLISA analysis relative to amyloid beta40 level; type: functional, organism-based
[10] = system: Rattus norvegicus; assay: Antialzheimer activity in CD rat assessed as reduction in amyloid beta42 level in plasma administered as po for 6 days by alphaLISA analysis relative to total amyloid beta40 level; type: functional, organism-based
[11] = molecular target: T1, Gamma-secretase (Homo sapiens); assay: Modulation of gamma-secretase-mediated cleavage of human APP Swedish and London mutation expressed in HEK293 cells assessed as increase in amyloid beta38 production at 10 uM by SELDI-MS analysis; type: cell-based
[12] = system: Rattus norvegicus; assay: Antialzheimer activity in po dosed CD rat assessed as reduction in amyloid beta42 level in cortex after 3 hrs by alphaLISA analysis relative to amyloid beta40 level; type: functional, organism-based
[13] = system: Rattus norvegicus; assay: Antialzheimer activity in po dosed CD rat assessed as reduction in amyloid beta42 level in CSF after 3 hrs by alphaLISA analysis relative to total amyloid beta level; type: functional, organism-based
[14] = molecular target: T1, Gamma-secretase (Homo sapiens); assay: Modulation of gamma-secretase-mediated cleavage of human APP Swedish and London mutation expressed in HEK293 cells assessed as increase in amyloid beta37 production at 10 uM by SELDI-MS analysis; type: cell-based
[15] = system: Rattus norvegicus; assay: Antialzheimer activity in CD rat assessed as reduction in amyloid beta42 level in plasma administered as po for 6 days by alphaLISA analysis relative to total amyloid beta level; type: functional, organism-based
[16] = system: Rattus norvegicus; assay: Antialzheimer activity in po dosed CD rat assessed as reduction in amyloid beta42 level in CSF after 3 hrs by alphaLISA analysis relative to amyloid beta40 level; type: functional, organism-based
[17] = system: Rattus norvegicus; assay: Antialzheimer activity in CD rat assessed as reduction in amyloid beta42 level in CSF administered as po for 6 days by alphaLISA analysis relative to total amyloid beta40 level; type: functional, organism-based
[18] = molecular target: Gamma-secretase; assay: Modulation of gamma-secretase-mediated cleavage of human APP Swedish and London mutation expressed in HEK293 cells assessed as reduction of total amyloid beta level after 5 hrs by sandwich immunoassay; type: cell-based
[19] = molecular target: Gamma-secretase; assay: Modulation of gamma-secretase-mediated cleavage of human APP Swedish and London mutation expressed in HEK293 cells assessed as inhibition of amyloid beta42 production after 5 hrs by sandwich immunoassay; type: cell-based
[20] = molecular target: T1, Gamma-secretase (Homo sapiens); assay: Modulation of gamma-secretase-mediated cleavage of human APP Swedish and London mutation expressed in HEK293 cells assessed as reduction of total amyloid beta/amyloid beta42 ratio after 5 hrs by sandwich immunoassay; type: cell-based
[21] = Dissociation constant, pKa of the compound; type: physicochemical
[22] = Chemical stability of the compound in aqueous 0.1 N HCl/MeOH (1:1) assessed as deterioration of enantiomaric excess after 7 days; type: physicochemical; settings: buffer, 168 h
[23] = Permeability from apical to basolateral side of human Caco2 cells; type: ADME, cell-based; settings: Caco-2, read-out: permeability
[24] = system: Rattus norvegicus; assay: Antialzheimer activity in rat assessed as reduction in amyloid beta42 level in cortex at 30 mg/kg, po; type: functional; parameters: scale not given: the % may be the effect or the level left
[25] = system: Rattus norvegicus; assay: Antialzheimer activity in rat assessed as reduction in amyloid beta42 level in CSF at 30 mg/kg, po; type: functional; parameters: scale not given: the % may be the effect or the level left
[26] = species: Canis familiaris; assay: Cardiotoxicity in dog assessed as effect on electrocardiographic QTc interval at compound concentration required for pharmacological effect; type: toxicity, organism-based, Canis lupus familiaris; settings: in vivo
[27] = molecular target: Voltage-gated inwardly rectifying potassium channel KCNH2 (Homo sapiens, UniProt Q12809); assay: Inhibition of human ERG by cell based voltage clamp assay
Sequence of Voltage-gated inwardly rectifying potassium channel KCNH2 (Q12809 whole entry): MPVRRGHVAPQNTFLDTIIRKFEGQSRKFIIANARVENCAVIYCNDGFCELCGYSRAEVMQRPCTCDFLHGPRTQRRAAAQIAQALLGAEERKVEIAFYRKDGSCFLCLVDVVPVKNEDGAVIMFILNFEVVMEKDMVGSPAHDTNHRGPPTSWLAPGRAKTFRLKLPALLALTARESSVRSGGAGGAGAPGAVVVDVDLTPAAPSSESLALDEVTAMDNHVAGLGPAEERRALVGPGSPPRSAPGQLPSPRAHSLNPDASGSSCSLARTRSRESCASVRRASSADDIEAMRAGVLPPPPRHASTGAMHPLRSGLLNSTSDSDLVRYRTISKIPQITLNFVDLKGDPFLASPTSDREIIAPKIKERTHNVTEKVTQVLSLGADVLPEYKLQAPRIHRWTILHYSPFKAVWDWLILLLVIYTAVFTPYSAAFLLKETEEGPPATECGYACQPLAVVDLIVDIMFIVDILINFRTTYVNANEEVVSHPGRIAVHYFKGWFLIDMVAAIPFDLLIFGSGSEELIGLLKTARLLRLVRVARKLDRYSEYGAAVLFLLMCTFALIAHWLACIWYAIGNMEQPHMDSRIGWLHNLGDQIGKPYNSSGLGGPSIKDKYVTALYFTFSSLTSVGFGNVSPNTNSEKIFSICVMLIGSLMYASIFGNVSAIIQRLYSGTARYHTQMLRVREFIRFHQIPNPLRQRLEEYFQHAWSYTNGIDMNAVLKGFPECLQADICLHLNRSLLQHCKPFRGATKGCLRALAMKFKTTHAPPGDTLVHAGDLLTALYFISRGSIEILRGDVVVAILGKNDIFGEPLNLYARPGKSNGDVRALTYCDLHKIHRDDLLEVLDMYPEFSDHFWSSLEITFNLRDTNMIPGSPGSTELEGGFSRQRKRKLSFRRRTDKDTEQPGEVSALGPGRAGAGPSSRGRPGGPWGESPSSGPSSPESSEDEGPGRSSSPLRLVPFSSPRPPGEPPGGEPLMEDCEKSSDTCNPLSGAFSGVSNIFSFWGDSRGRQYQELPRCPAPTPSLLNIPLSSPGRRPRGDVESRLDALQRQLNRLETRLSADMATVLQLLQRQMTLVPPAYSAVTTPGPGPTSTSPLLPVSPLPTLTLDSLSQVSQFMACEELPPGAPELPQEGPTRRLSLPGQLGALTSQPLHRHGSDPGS

[28] = Lipophilicity, log D of the compound at pH 7.4; type: physicochemical; settings: buffer
[29] = Aqueous solubility of the compound at pH 3.5; type: physicochemical; settings: aqueous medium
[30] = molecular target: Gamma-secretase; assay: Modulation of gamma-secretase-mediated cleavage of human APP Swedish and London mutation expressed in HEK293 cells assessed as inhibition of amyloid beta40 production after 5 hrs by sandwich immunoassay; type: cell-based
[31] = Chemical stability of the compound under neutral conditions; type: physicochemical
[32] = Chemical stability of the compound in aqueous 0.1 N HCl assessed as decomposition to corresponding acetophenone after 3 hrs; type: physicochemical; settings: buffer

| Structure (SMILES) | IC50 [18] [µM] | IC50 [19] [µM] | Ratio IC50 [20] | also measured |
| --- | --- | --- | --- | --- |
| COc1cc(/C=C2\CCCN3C2=NOC[C@@H]3c2cc(F)c(F)c(F)c2)ccc1-n1cnc(C)c1 |  |  |  | Activity [1]: Active; Activity [2]: Active; Activity [3]: Active; Activity [4]: Dose-dependent effect; Activity [5]: Dose-dependent effect; Activity [6]: Dose-dependent effect; Activity [7]: Dose-dependent effect; Activity [8]: Dose-dependent effect; Activity [9]: Dose-dependent effect; Activity [10]: Dose-dependent effect; Activity [11]: Active; Activity [12]: Dose-dependent effect; Activity [13]: Dose-dependent effect; Activity [14]: Active; Activity [15]: Dose-dependent effect; Activity [16]: Dose-dependent effect; Activity [17]: Dose-dependent effect |
| COc1cc(/C=C2\CCCN3C2=NOC3(CO)c2cc(F)cc(F)c2)ccc1-n1cnc(C)c1 (single isomer, unassigned) | 6.75 | 0.021 | 316 |  |
| COc1cc(/C=C2\CCCN3C2=NOC3(CO)c2cc(F)c(F)c(F)c2)ccc1-n1cnc(C)c1 (single isomer, unassigned) | 15.8 | 0.015 | 1020 |  |
| COc1cc(/C=C2\CCCN(C3(c4ccccc4)CCOCC3)C2=O)ccc1-n1cnc(C)c1 |  | 0.056 |  |  |
| c1ccc(-n2ccnc2)cc1 |  |  |  | pKa [21]: 5.1 |
| COc1cc(/C=C2\CCCN3C2=NOC3(CO)c2ccccc2)ccc1-n1cnc(C)c1 (single isomer, unassigned) | 3.21 | 0.096 | 33 |  |
| COc1cc(/C=C2\CCCN3C2=NOC3(CO)c2ccc(C#N)cc2)ccc1-n1cnc(C)c1 (single isomer, unassigned) | > 20 | 0.117 | > 171 |  |
| COc1cc(/C=C2\CCCN3C2=NOC3(CO)c2cccc(F)c2)ccc1-n1cnc(C)c1 (single isomer, unassigned) | 7.16 | 0.026 | 280 |  |
| COc1cc(/C=C2\CCCN([C@@H](C)c3ccc(F)cc3)C2=O)ccc1-n1cnc(C)c1 |  |  |  | Papp A→B [23]: 57.9 ×10⁻⁶ cm/s; Activity [24]: 44%; Activity [25]: 55%; Activity [26]: Non-toxic; IC50 [27]: 1.2 µM |
| COc1cc(/C=C2\CCCN3C2=NOC[C@@H]3c2cc(F)c(F)c(F)c2)ccc1-n1cnc(C)c1.Cl |  |  |  | logD [28]: 5.29; solubility [29]: > 100 mM |
| COc1cc(/C=C2\CCCN3C2=NOC3(CO)c2ccccc2F)ccc1-n1cnc(C)c1 (single isomer, unassigned) | 10.1 | 0.053 | 189 |  |
| COc1cc(/C=C2\CCCN3C2=NOC3(CO)c2ccc(F)cn2)ccc1-n1cnc(C)c1 (single isomer, unassigned) | 19.7 | 0.103 | 192 |  |
| COc1cc(/C=C2\CCCN3C2=NOC3(CO)c2cncc(F)c2)ccc1-n1cnc(C)c1 (single isomer, unassigned) | > 20 | 0.106 | > 189 |  |

More lines, main results first:

| IC50 [18] [µM] | IC50 [19] [µM] | Ratio IC50 [20] | Structure (SMILES) | also measured |
| --- | --- | --- | --- | --- |
| > 20 | 0.089 | > 225 | COc1cc(/C=C2\CCCN3C2=NO[C@@]3(c2ccc(F)cc2)[C@H](C)O)ccc1-n1cnc(C)c1 |  |
| > 20 | 7.64 |  | COc1cc(/C=C2\CCCN3C2=NO[C@@]3(CO)c2ccc(F)cc2)ccc1-n1cnc(C)c1 | pKa [21]: 5.8; Stability [22]: Stable |
| > 20 | 0.191 | > 105 | CNC[C@]1(c2ccc(F)cc2)ON=C2/C(=C/c3ccc(-n4cnc(C)c4)c(OC)c3)CCCN21 |  |
|  | 0.06 |  | COCCCN(C(=O)/C=C/c1ccc(-n2cnc(C)c2)c(OC)c1)c1cccc2ccccc12 |  |
| 16.2 | 0.046 | 350 | COc1cc(/C=C2\CCCN3C2=NO[C@@]3(c2ccc(F)cc2)[C@@H](C)O)ccc1-n1cnc(C)c1 |  |
| 19.3 | 0.072 | 269 | COc1cc(/C=C2\CCCN3C2=NO[C@]3(CN(C)S(C)(=O)=O)c2ccc(F)cc2)ccc1-n1cnc(C)c1 |  |
|  | 0.187 |  | COCCCN1C(/C=C/c2ccc(-n3cnc(C)c3)c(OC)c2)=NOC1(C)c1ccc(F)cc1 (racemic) | IC50 [30]: 2 µM; Stability [31]: Stable; Stability [32]: Unstable |
| > 20 | 0.08 | > 250 | COc1cc(/C=C2\CCCN3C2=NO[C@]3(CNCCO)c2ccc(F)cc2)ccc1-n1cnc(C)c1 |  |
| 17.5 | 0.122 | 144 | COC[C@]1(c2ccc(F)cc2)ON=C2/C(=C/c3ccc(-n4cnc(C)c4)c(OC)c3)CCCN21 |  |
| 18.8 | 0.196 | 96 | COc1cc(/C=C2\CCCN3C2=NO[C@]3(CN(C)C)c2ccc(F)cc2)ccc1-n1cnc(C)c1 |  |
| > 20 | 0.199 | > 101 | COc1cc(/C=C2\CCCN3C2=NO[C@]3(CN(C)C(C)=O)c2ccc(F)cc2)ccc1-n1cnc(C)c1 |  |
